As usually defined, the IC50 is the concentration needed to halve the response being measured. As a reminder, the LD50 is the dose expected to kill half of the subjects tested.

Series [1] deals with adriamycin-resistant P388. The experiment in a line: Cytotoxicity test on adriamycin-resistant P388 (P388/ADR) (MTT, 72 h). Format: cell-based. As to the method: Cultured tumor cell lines P388 and P388/ADR were suspended in RPMI1640 medium containing 10% heat inactivated fetal calf serum (FCS) and 20 μM 2-mercaptoethanol whereby a cell suspension (5×10^4 cells/ml) was prepared.
A sample examined was dissolved in methanol, then diluted with RPMI 1640 medium and subjected to serial 2-fold dilution starting at the concentration of 0.1 mg/ml. 180 μl of the cell suspension and 20 μl of the sample solution were added into a 96-well micro-titer plate and incubated at 37° C. in wet 5% CO2 gas/95% air. 72 hours thereafter, cell growth was measured by a calorimetric assay method using 3-(4,5-dimethyl-2-thiazolyl)-2,5-diphenyl-2H-tetrazolium bromide (MTT) as follows: 20 μl of 2 mg/ml MTT solution was added to each well and the cells were incubated for 4 hours at 37° C. Thereafter, 50 μl of 50% dimethylformamide solution containing 20% sodium dodecyl sulfate was added to each well and allowed to stand, so that the formed violet formazan crystal was dissolved, and its absorbance at 570 nm was measured in a microplate absorbance photometer (Immunoreader) and used as an indicator of the growth. The result was expressed in terms of the concentration of a sample at which growth was inhibited by 50% (IC50), which was determined from the relationship between sample concentrations and degrees of inhibition calculated using the following equation (1):
Degree of inhibition=[1-(absorbance in presence of sample)/(absorbance in
absence of sample)]×100 (1)

For series [2], the system named is blastgenesis of lymphocytes. The experiment in a line: Mouse allogenic mixed lymphocyte reaction (MLR), inhibition of blastgenesis ([3H]-thymidine incorporation). Format: cell-based, mouse (C57BL/6 responder, BALB/C stimulator). Conditions: 96 h. The procedure: The mouse allogenic mixed lymphocyte reaction for assay was carried out according to the method of Hatanaka et al. (Hatanaka et al., J. Antibiotics, 41, 1592-1601 (1988)). That is, spleen cells from C57BL/6 mouse (H-2^b) as responder cells were mixed with spleen cells from BALB/C mouse (H-2^d) treated with mitomycin C as stimulator cells, and then cultured.
Preparation of the responder cells was carried out in the following manner:
The spleen was removed from a 5- to 6-week-old C57BL/6 mouse, then homogenized in 20 ml ice-cold RPMI 1640 medium supplemented with 10% heat inactivated fetal calf serum (FCS), and filtered through a gauze to give a single cell suspension. The cells were recovered by centrifugation, suspended in 4 ml PRMI 1640 medium, followed by adding 6 ml solution (pH 7.2) containing 0.15 M ammonium chloride, 1 mM sodium hydrogen carbonate and 0.1 mM tetrasodium ethylenediaminetetraacetate, and the mixture was incubated at 0° C. for 1 minute to remove the contaminating erythrocytes. […]
90 μl of the responder cell suspension, 90 μl of the stimulator cell suspension and 20 μl of sample were added to a 96-well microplate and incubated at 37° C. in wet 5% CO2 /95% air for 96 hours. […] The radioactivity of a filter disk corresponding to each well was determined using liquid scintillation counter (beta-counter).
(In general: Incorporation of labelled thymidine or its analogues reports DNA synthesis.)

Series [3] has as its system cytotoxic T cell induction by allogenic immunization. The experiment in a line: In vivo mouse cytotoxic T cell induction test. More on the design: species or system mouse (C57BL/6). The procedure:
A 8-week-old, female C57BL/6 mouse (H-2^b) was immunized intraperitoneally with 0.2 ml of cultured cell line P815 suspension (5×10^7 cells/ml PBS) derived from DBA/2 (H-2^d), and 0.2 to 0.3 ml of 0.1 mg/ml sample was administered intraperitoneally at a dosage of 1 mg/kg body weight/day for 5 days including the day of immunization.
To measure cytotoxic T cell activity, 100 μl of the effector cell suspension and 100 μl of the target cell suspension were put to each well on a 96-well round-bottomed microplate and incubated at 37° C. for 4 hours, and the cells were centrifuged and the amount of ^51 Cr released into the supernatant was measured and the cytotoxic T cell activity was calculated using the following equation 2:
Cytotoxic T cell activity=A/B×100 (2)
A: (radioactivity of effector cells+target cells)-(radioactivity of only target cells)
B: (radioactivity of target cells treated with 0.1 N HCl)-(radioactivity of only target cells)
The cytotoxic T cell activity was expressed in terms of lytic unit (LU). One LU is defined as the number of effector cells required for 20% lysis of 2×10^4 target cells, and the result is shown in LU per spleen.
Similarly, the mouse was immunized and then administered 0.2 to 0.3 ml of 1 mg/ml of the sample (i.e. at a dosage of 10 mg/kg body weight/day) by intraperitoneal administration for 5 days and the cytotoxic activity was determined.

Series [4] can be described thus: Repeated administration toxicity test (intraperitoneal). Format: in vivo, mouse (CDF1). Conditions: mouse, in vivo, ip, read-out: Fatality rate. The procedure:
(§1) As the comparative control, test solutions of adriamycin were prepared in the same manner. […] The number with time of survived animals after administration and the average body weights on Days 0, 5, and 10 were determined.

The subject of series [5] is CDF1 mice. The series is described as above. Format: in vivo, mouse (CDF1). Conditions: for Body weight, Day 0: Day 0 (baseline). The procedure:
as §1

A short description of series [6]: Acute toxicity test. The note with it: mouse, in vivo, iv.
Series [7] deals with ICR mice. As to the kind of experiment: Acute toxicity test.

≈ marks a conversion by molar mass, not a printed value. Where two headings read alike, the source gives them in different places.

As to `COC(CC1C(C)=CCC2C1(C)CCC1C(C)(C)C(O)C(OC3OC(C)C(OC(=O)c4cccc(O)c4)C(OC4OC(CO)C(O)C(O)C4NC(C)=O)C3O)CC12C)C(N)C(=O)O` (centres unmarked) [0406TP-1], the concentration for half-maximal inhibition (IC50) worked out at 0.22 µg/mL (≈ 0.246 µM) in series [1] (Mus musculus, adriamycin-resistant P388, 72 h, MTT, read-out: IC50 (growth inhibition)) and 0.11 µg/mL (≈ 0.123 µM) in series [2]. For the same compound, the “inhibition on growth of adriamycin-resistant cells” value in series [1] (in words) was “strong inhibition”. Further, the results for the “Cytotoxic T cell activity” value in series [3] (1.0 mg/kg/day × 5 days i.p.) and in series [3] (10 mg/kg/day × 5 days i.p.) were 350 LU/spleen and 285 LU/spleen, respectively. Besides, the “Cytotoxic T cell activity inhibition” value is reported as 12% in series [3] (1.0 mg/kg/day × 5 days i.p.) and 38% in series [3] (10 mg/kg/day × 5 days i.p.). For the same compound, in series [3] (allogenic-immunized mouse, intraperitoneal, in words), the “inhibition of induction of cytotoxic T cells in spleen cells” value is listed as “inhibit induction of cytotoxic T cells”. Besides, the mortality in series [4] (1 mg/kg/day i.p. × 10 days), in series [4] (5 mg/kg/day i.p. × 10 days) and in series [4] (10 mg/kg/day i.p. × 10 days) was 0% throughout. The “Body weight, Day 0” value in series [5] (1 mg/kg/day i.p. group) is recorded as 22.0 g; in series [5] (5 mg/kg/day i.p. group) it was 21.8 g; in series [5] (10 mg/kg/day i.p. group) it was 21.4 g. Also, the “Body weight, Day 5” value turned out to be 23.1 g in series [5] (1 mg/kg/day i.p.), 23.7 g in series [5] (5 mg/kg/day i.p.) and 23.6 g in series [5] (10 mg/kg/day i.p.). In addition, the “Body weight, Day 10” value in series [5] (1 mg/kg/day i.p.) was found to be 25.0 g; in series [5] (5 mg/kg/day i.p.), 25.5 g; in series [5] (10 mg/kg/day i.p.), 25.4 g. Besides, the median lethal dose (LD50) at 730 h in series [6] is > 100 mg/kg. In addition, the survival result in series [7] (100 mg/kg i.v., one month observation) is “all survived”. The toxicity and safety entry in series [7] (acute toxicity test, in words) was “low toxicity”.

These data come from patent publication US5932555A (priority 1997, dated 1999).
